# From article PMC11547827, “Discovery of Cyclic Peptide Inhibitors Targeted on TNFα-TNFR1 from Computational Design and Bioactivity Verification” (Molecules, 2024)
# Entries after “also recorded” stand apart in the source; their conditions may differ. Where a SMILES comes first, the peptide text is derived from it. Bridges are numbered along the chain shown (N, C = ends).
# Key:
# hTNFR1 = target: T1, hTNFR1 (Homo sapiens, UniProt P19438); assay: ELISA binding affinity to hTNFR1
# T1 sequence (P19438 30-455): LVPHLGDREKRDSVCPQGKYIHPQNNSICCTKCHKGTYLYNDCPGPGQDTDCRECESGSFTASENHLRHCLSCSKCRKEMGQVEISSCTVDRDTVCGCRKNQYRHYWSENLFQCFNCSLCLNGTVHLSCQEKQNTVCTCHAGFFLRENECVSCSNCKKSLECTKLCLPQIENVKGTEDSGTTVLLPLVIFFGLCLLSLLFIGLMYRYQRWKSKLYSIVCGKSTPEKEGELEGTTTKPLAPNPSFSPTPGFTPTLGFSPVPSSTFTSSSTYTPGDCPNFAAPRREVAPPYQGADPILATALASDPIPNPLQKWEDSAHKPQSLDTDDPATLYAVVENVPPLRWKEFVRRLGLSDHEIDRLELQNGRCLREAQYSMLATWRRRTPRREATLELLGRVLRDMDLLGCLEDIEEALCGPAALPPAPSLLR
# Method: The hTNFR1 (100 ng) was coated on a 96-well ELISA plate (BIOFIL, Guangzhou, China) overnight at 4 °C, followed by blocking the plate with 200 μL of 3% skim milk solution in PBST (PBS, 0.05% Tween20) for 2 h at 37 °C. […] After incubating with the cyclic peptides for 2 h at room temperature, […] mAB (Solarbio, Beijing, China) was diluted at 1:500, and was incubated for an additional 2 h at room temperature. Five washes with PBST were carried out between each incubation to remove nonspecific absorbance. After the final wash, the samples were incubated in the dark with freshly prepared TMB Chromogen Solution (Sangon Biotech, Shanghai, China) for 10 min at room temperature to develop the signals. After adding the stop solution (1 M H2SO4), the plates were read at 450 nm on a plate reader. The raw data were processed to calculate the Kd value.
# TNFα trimer = details: cited from earlier work
# Description: Several potential small molecules of TNFα inhibitors have already been reported. […] Furthermore, through structure-based virtual screening and biological assay, Xie’s group identified two novel antagonists, T1 and R1 (Figure S1A), which could bind to TNFα or TNFR1, with low-micromolar binding affinities to TNFα and TNFR1, respectively ...
# TNFα = details: cited from earlier work
# Description: Several potential small molecules of TNFα inhibitors have already been reported.
# L929 cells = details: α_CC8, 200 μM, 24 h, CCK-8, 450 nm, n = 3
# Method: L929 cells were seeded in a 96-well plate at a density of 8000 cells per well and cultured for 24 h under standard conditions. Then, the liquid in the wells was discarded, and 100 µL of medium containing different concentrations of cyclic peptides was added. After incubation for 24 h, the liquid in the well was discarded, and the medium was replaced with CCK-8 working solution (100 μL RPMI 1640 medium containing 5% CCK-8) and incubated in the dark for 2 h. The absorbance of each well at 450 nm was detected with a microplate reader. The same operation was performed with wells not seeded with cells as a blank group to eliminate systematic errors. Cell viability was calculated according to the following formula:(7) Cell viability(%)=(ODtest−ODblank)/(ODcontrol−ODblank)×100%
# [1] = system: TNFα-mediated cytotoxicity in L929 cells; assay: Neutralization of TNFα induced necrosis in L929 cells
# Method: L929 cells were seeded at a density of 8000 cells/well in a 96-well plate and incubated for 24 h in RPMI 1640 with 10% FBS at 37 °C. The experiment was divided into a blank group, a control group, a positive control group, and an experimental group. […] Serially diluted α_CC8 was added to cells and incubated at 37 °C, 5% CO2 for 2 h initially, and then 50 μL 10 ng/mL human TNFα was added and incubated overnight (17 h). 1 μg/mL Etanercept was used as a positive control. Subsequently, 100 μL 5% CCK-8 was added per well, followed by incubation of 2 h. The control group consisted of normal cultured cells without TNFα stimulation, while the blank control group contained empty wells without cells. At last, cell viability was confirmed by measuring the absorbance of each well at 450 nm. Cell viability was calculated according to Formula (7). Data was analyzed with SPSSAU (https://spssau.com/, Accessed on 14 August 2023) using the paired t-test to compare the differences between the experimental and control groups.
compound,measurement,setting,value
CC[C@H](C)[C@@H]1NC(=O)[C@H](CCCNC(=N)N)NC(=O)[C@H](CO)NC(=O)[C@H]([C@@H](C)CC)NC(=O)[C@H]([C@@H](C)O)NC(=O)[C@@H](N)CSSC[C@@H](C(=O)O)NC(=O)[C@H](CO)NC(=O)[C@H](CC(C)C)NC(=O)[C@H](CCCNC(=N)N)NC(=O)[C@H](CC(N)=O)NC(=O)[C@H](C(C)C)NC(=O)[C@H](CCCCN)NC(=O)[C@H]([C@@H](C)O)NC(=O)[C@H](CCC(N)=O)NC(=O)[C@H](Cc2ccc(O)cc2)NC(=O)[C@H](CO)NC(=O)[C@H](C(C)C)NC(=O)[C@H](CCCCN)NC1=O [L16R] (H-CTISRIKVSYQTKVNRLSC-OH; disulfide 1-19; N-terminus and C-terminus assumed),binding to hTNFR1 (in words),hTNFR1,good binding condition with hTNFR1
"Cc1cc2occ(CN(C)CCN(C)Cc3cn(-c4cccc(C(F)(F)F)c4)c4ccccc34)c(=O)c2cc1C [SPD-304, reference compound]",effect on TNFα trimer (in words),TNFα trimer,greatly increase the dissociation rate of the TNFα trimer
same,Kd,TNFα; TNFα small molecule antagonist,5.36 µM
CC[C@H](C)[C@@H]1NC(=O)[C@H](CCCNC(=N)N)NC(=O)[C@H](CO)NC(=O)[C@H]([C@@H](C)CC)NC(=O)[C@H]([C@@H](C)O)NC(=O)[C@@H](N)CSSC[C@@H](C(=O)O)NC(=O)[C@H](CO)NC(=O)[C@H](CC(C)C)NC(=O)[C@H](CC(C)C)NC(=O)[C@H](CC(N)=O)NC(=O)[C@H](C(C)C)NC(=O)[C@H](CCCCN)NC(=O)[C@H]([C@@H](C)O)NC(=O)[C@H](CCC(N)=O)NC(=O)[C@H](Cc2ccc(O)cc2)NC(=O)[C@H](CO)NC(=O)[C@H](C(C)C)NC(=O)[C@H](C)NC1=O [α_CC8] (H-CTISRIAVSYQTKVNLLSC-OH; disulfide 1-19; N-terminus and C-terminus assumed),survival rate of L929 cells,L929 cells,≤ 90%
same,inhibition of TNFα-mediated cytotoxicity (in words),[1]; L929 cells,effectively inhibit the TNFα-mediated cytotoxicity; also recorded: better bioactivity and lower effective concentration than R1_CC4; also recorded: improve cell viability significantly by inhibiting TNFα-mediated necrosis; also recorded: higher biological activity and effective concentration than R1_CC4
same,concentration at which survival rate increased significantly,"[1]; L929 cells, human TNFα 10 ng/mL, 17 h, CCK-8, n = 3",60 µM
same,increase of cell survival rate,"[1]; α_CC8 60 μM, 2 h with cells, then human TNFα 17 h, n = 3",17.8%
Etanercept,TNFα binding (in words),"TNFα; background statement, no reference given",strong ability to bind TNFα
same,blocking effect compared with the cyclic peptides (in words),"[1]; Etanercept 1 μg/mL, positive control, L929 cells",stronger blocking effect on the formation of TNFα/TNFR1
TNFα,survival rate of L929 cells after TNFα,"[1]; TNFα alone, 10 ng/mL, 17 h, average",42%
